Where a SMILES comes first, the peptide text is derived from it. [ ]: non-standard residue; d: D form. ξ: configuration not given here. ξPro(4ξ-Me) = CC1CNC(C(=O)O)C1; ξIva = CCC(C)(N)C(=O)O; Aib = CC(C)(N)C(=O)O
Columns and labels:
[1] = target: T1, human calcitonin receptor (Homo sapiens, UniProt P30988); assay: CRE-luciferase induction in Hollex-1 cells (BHK 570 expressing human calcitonin receptor and CRE-luciferase reporter); assay type: cell-based; conditions: BHK 570 cells expressing human calcitonin receptor and CRE-luciferase reporter (Hollex-1)
T1 construct: expressed in transfected cells; host or cells: BHK 570 clone KZ10-20-48 (CRE-luciferase), clone Hollex-1
T1 sequence (P30988 25-474): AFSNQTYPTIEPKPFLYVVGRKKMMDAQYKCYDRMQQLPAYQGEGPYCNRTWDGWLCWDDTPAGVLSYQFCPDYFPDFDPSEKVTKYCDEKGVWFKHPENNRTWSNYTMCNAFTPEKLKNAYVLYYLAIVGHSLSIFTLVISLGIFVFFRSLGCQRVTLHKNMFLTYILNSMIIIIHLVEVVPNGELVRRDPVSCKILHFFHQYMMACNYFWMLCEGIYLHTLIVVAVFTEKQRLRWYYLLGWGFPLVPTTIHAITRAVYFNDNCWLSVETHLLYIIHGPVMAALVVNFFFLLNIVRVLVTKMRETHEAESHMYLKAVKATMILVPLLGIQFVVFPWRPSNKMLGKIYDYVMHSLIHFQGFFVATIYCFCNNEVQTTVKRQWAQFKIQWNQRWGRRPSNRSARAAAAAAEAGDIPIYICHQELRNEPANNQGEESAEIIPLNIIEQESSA

[2] = tested on: PTH-Induced Bone Resorption in Mouse Calvariae; assay: Calvarial assay: PTH-induced bone resorption (calcium release); assay type: cell-based; conditions: 1 nM PTH 1-34, 72 hours, read-out: Inhibition of Ca++ Release EC50
Procedure: Calvaria from 4-day old neonatal CD-1 mice (pregnant mice received from Charles River Laboratories, Wilmington, Mass.) were trimmed with fine-tipped scissors to leave the parietal regions, including the sagittal suture. These trimmed bones were placed singly per well into 6-well cell culture cluster plates (Costar, Pleasanton, Calif.) with 1 ml/well of growth medium (DMEM, BioWhittaker, Walkersville, Md.) with 4.5 g/L glucose, 0.29 mg/ml L-glutamine, 1 mM sodium pyruvate, 15% heat-inactivated horse serum, and antibiotics (penicillin-G 50 μg/ml, streptomycin 50 μg/ml, and neomycin 100 μg/ml), and rocked gently (RedRocker™, model PR50-115V, Hoefer, San Francisco, Calif.) at 37° C. in a 5% CO2 humidified incubator for 24 hours preincubation.
Following incubation, medium was removed and replaced with 1.5 ml/well of growth medium containing 1 nM parathyroid hormone (PTH) 1-34 (Sigma) to stimulate bone resorption. For evaluation of the ability of calcitonin mimetics to inhibit PTH induced bone resorption, mimetic compounds in DMSO were added to the growth medium at concentrations ranging from 1-240 μg/ml (final assay concentration of DMSO less than or equal to 1%). In each experiment human calcitonin (0.02-20 nM, 0.2-2 nM preferred) was added to PTH treated bones as a positive control. […]

[3] = tested on: osteoclasts in mouse calvariae; assay: Calvaria histology (TRAP-stained osteoclast number and size); assay type: cell-based
From the text: To confirm the findings in the calvarial bone resorption assay employing calcium release from culture mouse calvariae, selected bones were fixed in 10% neutral buffered formalin and demineralized in 5% formic acid with 5% formalin. The bones were dehydrated through an ascending series of ethanol concentrations, infiltrated in glycol methacrylate, and embedded using a JB-4 embedding kit (PolySciences, Warrington, Pa.) (Liu and Kalu, J. Bone Miner. Res., 5:973-82, 1990). Cross sections of calvariae cut at 5 μm were obtained and stained for tartrate-resistant acid phosphatase (TRAP) activity and counterstained with methyl green and thionin for cell morphology (Liu and Kalu, J. Bone. Miner. Res. 1990, supra). Osteoclasts were identified by TRAP stain, multinucleation, large cell size, and irregular cell shape. The number of osteoclasts were counted from endocranial and ectocranial bone surfaces and expressed as number/mm perimeter. The size of all the osteoclasts counted was also measured using a Bone Morphometry program (Lui and Kalu, supra.; Bain et al., J. Done Miner. Res. 8:435-42, 1993). […] This PTH-induced increase was suppressed by treatment with human calcitonin.
Calcitonin mimetic compounds were evaluated in a similar fashion for their ability to suppress PTH-induced increases in osteoclast number and size. Cell toxicity (or death) was also evaluated morphologically. […]

[4] = Solubility of isolated powders in organic solvents; assay type: physicochemical
[5] = tested on: human calcitonin receptor; assay: CRE-luciferase induction in Hollex-1 cells (BHK 570 expressing human calcitonin receptor and CRE-luciferase reporter); assay type: cell-based; conditions: Hollex-1 clone; read-out: forskolin EC50, CRE-luciferase induction
[6] = tested on: KZ10-20-48/Zem 228 cells (calcitonin receptor negative); assay: CRE-luciferase induction in calcitonin receptor negative line KZ10-20-48/Zem 228 (specificity control); assay type: cell-based, baby hamster
[7] = tested on: KZ10-20-48 cells (CRE-luciferase reporter); assay: CRE-luciferase induction in parent reporter line BHK/KZ10-20-48; assay type: cell-based, baby hamster; conditions: clone KZ10-20-48, 25 mM forskolin, 4 hours; range 15-25 fold
Procedure: Stable transfectants were selected by growth in Dulbecco's modified Eagle's medium (DMEM) supplemented with 10% heat inactivated fetal bovine serum (HI-FBS), 2 mM L-glutamine and 1 mM sodium pyruvate containing 250 nM methotrexate (MTX) for 10-14 days. Clones were isolated, grown to confluence in opaque white microtiter plates (Dynatech, Chantilly, Va.), then treated with […], which elevates cellular cAMP through direct activation of adenylate cyclase (Berkowitz and Gilman, Proc. Nat. Acad. Sci. USA 87:5258-62, 1990) for 4 hours at 37° C., 5% CO2 . Following incubation, cells were lysed and assayed for luciferase induction in a Labsystems Luminoskan microtiter luminometer (Labsystems Inc., Morton Grove, Ill.) using a Promega luciferase kit (El500, Promega Corp., Madison, Wis.), as described below.

human glucagon receptor [8] = target: T2, human glucagon receptor (Homo sapiens, UniProt P47871); conditions: KZ10-20-48/pLJ6-4-25 clone
T2 sequence (P47871 26-477): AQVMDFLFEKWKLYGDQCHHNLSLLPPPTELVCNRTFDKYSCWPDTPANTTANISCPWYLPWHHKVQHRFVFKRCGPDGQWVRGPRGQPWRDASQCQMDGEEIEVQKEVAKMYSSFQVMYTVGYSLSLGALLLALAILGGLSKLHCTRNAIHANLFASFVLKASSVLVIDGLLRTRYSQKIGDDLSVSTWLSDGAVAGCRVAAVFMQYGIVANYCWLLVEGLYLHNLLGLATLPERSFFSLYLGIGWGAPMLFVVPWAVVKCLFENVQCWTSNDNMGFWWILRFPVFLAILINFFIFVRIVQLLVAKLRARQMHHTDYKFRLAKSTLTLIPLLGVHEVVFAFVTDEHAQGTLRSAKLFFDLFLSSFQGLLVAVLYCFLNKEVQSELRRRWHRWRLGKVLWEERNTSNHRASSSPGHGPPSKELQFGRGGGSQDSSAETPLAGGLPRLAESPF

human glucagon receptor [9] = target: T2, human glucagon receptor; assay: cell-based
[10] = target: hamster calcitonin receptor (Mesocricetus auratus, UniProt A0A3Q0D7K7); assay: CRE-luciferase induction in Boris/KZ10-3 cells (calcitonin receptor positive)
Chain of hamster calcitonin receptor (A0A3Q0D7K7 entry or part of it): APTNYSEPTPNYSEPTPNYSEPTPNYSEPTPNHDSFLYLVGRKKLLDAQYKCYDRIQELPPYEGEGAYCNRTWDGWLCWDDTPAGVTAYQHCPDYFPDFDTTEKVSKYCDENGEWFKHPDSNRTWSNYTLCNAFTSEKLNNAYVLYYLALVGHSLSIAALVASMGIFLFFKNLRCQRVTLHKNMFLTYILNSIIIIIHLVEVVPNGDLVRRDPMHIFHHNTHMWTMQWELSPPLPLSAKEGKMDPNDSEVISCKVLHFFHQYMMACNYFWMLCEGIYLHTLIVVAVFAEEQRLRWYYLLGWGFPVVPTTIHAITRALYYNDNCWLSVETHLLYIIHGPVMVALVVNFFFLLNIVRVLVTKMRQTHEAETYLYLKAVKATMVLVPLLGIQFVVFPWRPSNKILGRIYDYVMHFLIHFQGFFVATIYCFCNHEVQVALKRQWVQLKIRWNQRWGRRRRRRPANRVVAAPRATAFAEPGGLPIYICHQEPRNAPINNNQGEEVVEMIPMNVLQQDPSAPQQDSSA

[11] = in acetonitrile, ethyl acetate, and chloroform
[12] = in methanol, ethanol, n-butanol and dimethyl sulfoxide

CC[C@H](C)[C@H](NC(=O)C(C)(C)NC(=O)[C@H](CCC(N)=O)NC(=O)C(C)(CC)NC(=O)[C@H](Cc1c[nH]c2ccccc12)NC(C)=O)C(=O)N[C@H](C(=O)NC(C)(C)C(=O)N[C@@H](CC(C)C)C(=O)NC(C)(C)C(=O)N1CCC[C@H]1C(=O)N[C@@H](CCC(N)=O)C(=O)NC(C)(C)C(=O)N1CCC[C@H]1C(=O)NC(C)(C)C(=O)N1CC(C)CC1C(=O)N[C@@H](Cc1ccccc1)C(=O)NCC(=O)O)[C@@H](C)O (stereo partly drawn) [ZG 2807 A, Acetyl-Trp-Xaal-Gln-2-aminoisobutyric acid (Aib)-Ile-Thr-Aib-Leu-Aib-Pro-Gln-Aib-Pro-Aib-Xaa2-Phe-Gly] (Ac-W[ξIva]Q[Aib]IT[Aib]L[Aib]PQ[Aib]P[Aib][ξPro(4ξ-Me)]FG-OH)
EC50 [1]: 506 nM
EC50 [2]: 33200 nM
Histology ([3]; PTH-treated mouse calvariae, the cell wraps over two lines: 'Inhibition of osteoclast size'): Inhibition of osteoclast
solubility [4, 11]: slightly soluble
solubility ([4]; in hexane): insoluble
solubility [4, 12]: readily soluble

CC[C@H](C)[C@H](NC(=O)C(C)(C)NC(=O)[C@H](CCC(N)=O)NC(=O)C(C)(CC)NC(=O)[C@H](Cc1c[nH]c2ccccc12)NC(C)=O)C(=O)N[C@H](C(=O)NC(C)(C)C(=O)N[C@@H](CC(C)C)C(=O)NC(C)(C)C(=O)N1CCC[C@H]1C(=O)N[C@@H](CCC(N)=O)C(=O)NC(C)(C)C(=O)N1CCC[C@H]1C(=O)NC(C)(C)C(=O)N1CC(C)CC1C(=O)N[C@@H](Cc1ccccc1)C(=O)O)[C@@H](C)O (stereo partly drawn) [ZG 2807 B, Acetyl-Trp-Xaal-Gln-Aib-Ile-Thr-Aib-Leu-Aib-Pro-Gln-Aib-Pro-Aib-Xaa2-Phe] (Ac-W[ξIva]Q[Aib]IT[Aib]L[Aib]PQ[Aib]P[Aib][ξPro(4ξ-Me)]F-OH)
EC50 [1]: 525 nM
solubility [4, 11]: slightly soluble
solubility ([4]; in hexane): insoluble
solubility [4, 12]: readily soluble

C=C[C@@]1(C)CC(=O)[C@]2(O)[C@@]3(C)[C@@H](O)CCC(C)(C)[C@@H]3[C@H](O)[C@H](OC(C)=O)[C@@]2(C)O1 [forskolin]
EC50 [5]: 1200 nM
EC50 ([6]; Mesocricetus auratus, range 0.5-1.5 μM): 600 nM
induction of CRE-luciferase ([6]; range 20-35 fold): 30 fold
induction of CRE-luciferase vs basal [7]: 20 fold
induction of luciferase (human glucagon receptor [8]): 35 fold
EC50 (human glucagon receptor [9]): 2100 nM
EC50 [10]: 900 nM
induction of luciferase ([10]; Boris/KZ10-3 clone): 25 fold

parathyroid hormone (PTH) 1-34 (SVSEIQLMHNLGKHLNSMERVEWLRKKLQDVHNF; Parathyroid hormone; UniProt P01270 32-65, looked up, fragment) [PTH 1-34, stimulus of bone resorption in the calvarial assay, reference compound]
number and size of osteoclasts (histomorphometry) ([3]; cultured mouse calvariae, calcitonin tested against the PTH-induced increase): increases in the number and size of osteoclasts
